Laboratory results as given in ChEMBL document CHEMBL6096690, “Synthesis and Biological Evaluation of Peripheral HTR2A Antagonists for Colorectal Cancer” (J Med Chem, 2025).
Activity calls are given as the source filed them. The calls are words filed in the database; no cut-off is given here.

What was measured:
[1] = molecular target: 5-hydroxytryptamine receptor 2A (Homo sapiens, UniProt P28223); assay: Antagonist activity at 5HTR2A (unknown origin) assessed as inhibition of 5-HTR2A
hERG (KCNH2) = hERG (KCNH2) (Homo sapiens, UniProt Q12809); assay: Inhibition of hERG at 10 uM relative to control; assay type: toxicity
[2] = Drug concentration in male ICR mouse plasma at 10 mg/kg, ip measured after 1 hr; assay type: ADME, organism-based
[3] = Drug concentration in male ICR mouse plasma at 10 mg/kg, ip measured after 3 hr; assay type: ADME, organism-based
CYP2C9 = CYP2C9 (Homo sapiens, UniProt P11712); assay: Inhibition of CYP2C9 (unknown origin) at 10 uM relative to control; assay type: ADME
CYP2C19 = CYP2C19 (Homo sapiens, UniProt P33261); assay: Inhibition of CYP2C19 (unknown origin) at 10 uM relative to control; assay type: ADME
CYP2D6 = CYP2D6 (Homo sapiens, UniProt P10635); assay: Inhibition of CYP2D6 (unknown origin) at 10 uM relative to control; assay type: ADME
CYP3A4 = CYP3A4 (Homo sapiens, UniProt P08684); assay: Inhibition of CYP3A4 (unknown origin) at 10 uM relative to control; assay type: ADME
[4] = molecular target: T1, 5-hydroxytryptamine receptor 2C (Homo sapiens) (UniProt P28335); assay: Inhibition of 5HTR2C (unknown origin) at 1 uM relative to control
T1 sequence (whole entry): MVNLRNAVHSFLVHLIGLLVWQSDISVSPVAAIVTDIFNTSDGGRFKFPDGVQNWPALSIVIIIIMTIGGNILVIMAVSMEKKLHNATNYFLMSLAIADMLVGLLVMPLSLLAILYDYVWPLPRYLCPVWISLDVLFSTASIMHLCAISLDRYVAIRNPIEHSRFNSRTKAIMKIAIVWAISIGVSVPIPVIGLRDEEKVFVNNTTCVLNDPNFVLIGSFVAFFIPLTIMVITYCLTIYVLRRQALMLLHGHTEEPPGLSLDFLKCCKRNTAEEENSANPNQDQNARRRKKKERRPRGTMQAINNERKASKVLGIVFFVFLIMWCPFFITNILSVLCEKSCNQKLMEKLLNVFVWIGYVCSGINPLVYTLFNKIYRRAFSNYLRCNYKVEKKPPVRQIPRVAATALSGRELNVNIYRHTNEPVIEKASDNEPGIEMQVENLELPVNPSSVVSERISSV

[5] = molecular target: 5-hydroxytryptamine receptor 5A (Homo sapiens) (UniProt P47898); assay: Inhibition of 5HTR5A (unknown origin) at 1 uM relative to control
[6] = Half life in male mouse at 2 mg/kg, iv; assay type: ADME, organism-based; details: in vivo
[7] = AUCt in male mouse at 2 mg/kg, iv; assay type: ADME, organism-based; details: in vivo
HCT-116 [8] = assay: Antiproliferative activity against human HCT-116 cells assessed as inhibition of cell proliferation incubated for 24 to 48 hrs by CCK-8 assay; assay type: functional, cell-based; details: dose 1.5-12.5 µM, time 24-48 hrs
HCT-116 [9] = assay: Antiproliferative activity against human HCT-116 cells assessed as inhibition of cell proliferation at 1.5 to 12.5 uM by CCK-8 assay; assay type: functional, cell-based; details: dose 1.5-12.5 µM, time […]
RKO [10] = assay: Antiproliferative activity against human RKO cells assessed as inhibition of cell proliferation incubated for 24 to 48 hrs by CCK-8 assay; assay type: functional, cell-based; details: dose 1.5-12.5 µM, time 24-48 hrs
RKO [11] = assay: Antiproliferative activity against human RKO cells assessed as inhibition of cell proliferation at 1.5 to 12.5 uM by CCK-8 assay; assay type: functional, cell-based; details: dose 1.5-12.5 µM, time 24-48 hrs
SW480 = assay: Antiproliferative activity against human SW480 cells assessed as inhibition of cell proliferation at 1.5 to 12.5 uM by CCK-8 assay; assay type: functional, cell-based; details: dose 1.5-12.5 µM, time 24-48 hrs
CCD-18Co [12] = assay: Cytotoxicity against human CCD-18Co cells assessed as inhibition of cell proliferation incubated for 24 to 48 hrs by CCK-8 assay; assay type: toxicity, cell-based; details: dose lower 1.5 µM, time lower 24 hrs, dose upper 12.5 µM, time upper 48 hrs
CCD-18Co [13] = assay: Cytotoxicity against human CCD-18Co cells assessed as inhibition of cell proliferation at 1.5 to 12.5 uM by CCK-8 assay; assay type: toxicity, cell-based; details: dose lower 1.5 µM, time lower 24 hrs, dose upper 12.5 µM, time upper 48 hrs
SW-620 [14] = assay: Induction of cell cycle arrest in human SW620 cells assessed as increase in sub-G1 phase cells incubated for 24 hrs by PI/RNase staining based flow cytometric analysis; assay type: functional; details: dose 5-10 µM
SW-620 [15] = assay: Induction of apoptosis in human SW620 cells assessed as increase in apoptotic cells at 5 to 10 uM incubated for 24 hrs by Annexin V/propidium iodide staining based FACS assay; assay type: functional, cell-based; details: dose 5-10 µM
HCT-116 [16] = assay: Induction of apoptosis in human HCT-116 cells assessed as upregulation of total P53 protein expression at 5 to 10 uM incubated for 24 hrs by Western blotting analysis; assay type: functional, cell-based; details: dose 5-10 µM
SW-620 [17] = assay: Induction of apoptosis in human SW620 cells assessed as upregulation of total P53 protein expression at 5 to 10 uM incubated for 24 hrs by Western blotting analysis; assay type: functional, cell-based; details: dose 5-10 µM
HCT-116 [18] = assay: Induction of cell cycle arrest at sub-G1 phase in human HCT-116 cells assessed as increase in p21 protein expression at 5 to 10 uM incubated for 24 hrs by Western blotting analysis; assay type: functional, cell-based; details: dose 5-10 µM
SW-620 [19] = assay: Induction of cell cycle arrest at sub-G1 phase in human SW620 cells assessed as increase in p21 protein expression at 5 to 10 uM incubated for 24 hrs by Western blotting analysis; assay type: functional, cell-based; details: dose 5-10 µM
SW-620 [20] = assay: Induction of apoptosis in human SW620 cells assessed as increase in cleaved caspase 3 expression incubated for 24 hrs by Western blotting analysis; assay type: functional, cell-based; details: dose 5-10 µM
HCT-116 [21] = assay: Induction of apoptosis in human HCT-116 cells assessed as increase in cleaved PARP expression incubated for 24 hrs by Western blotting analysis; assay type: functional, cell-based; details: dose 5-10 µM
SW-620 [22] = assay: Induction of apoptosis in human SW620 cells assessed as increase in cleaved PARP expression incubated for 24 hrs by Western blotting analysis; assay type: functional, cell-based; details: dose 5-10 µM
SW-620 [23] = assay: Antitumor activity against human SW620 cells xenografted in male athymic nude BALB/c mouse assessed as tumor growth inhibition at 50 mg/kg, ip administered once daily relative to control; assay type: functional; details: read-out: TGI
HCT-116 [24] = assay: Antitumor activity against human HCT-116 cells expressing firefly luciferase xenografted in male athymic nude BALB/c mouse assessed as decrease in bioluminescent signals at 50 mg/kg, ip administered once daily by bioluminescence imaging analysis; assay type: functional, organism-based
HCT-116 [25] = assay: Antitumor activity against human HCT-116 cells xenografted in male athymic nude BALB/c mouse assessed as tumor growth inhibition at 10 mg/kg, ip measured after 19 days relative to control; assay type: functional; details: HCT-116, 456 h, time 19 day, read-out: TGI

Chain of hERG (KCNH2) (Q12809 whole entry): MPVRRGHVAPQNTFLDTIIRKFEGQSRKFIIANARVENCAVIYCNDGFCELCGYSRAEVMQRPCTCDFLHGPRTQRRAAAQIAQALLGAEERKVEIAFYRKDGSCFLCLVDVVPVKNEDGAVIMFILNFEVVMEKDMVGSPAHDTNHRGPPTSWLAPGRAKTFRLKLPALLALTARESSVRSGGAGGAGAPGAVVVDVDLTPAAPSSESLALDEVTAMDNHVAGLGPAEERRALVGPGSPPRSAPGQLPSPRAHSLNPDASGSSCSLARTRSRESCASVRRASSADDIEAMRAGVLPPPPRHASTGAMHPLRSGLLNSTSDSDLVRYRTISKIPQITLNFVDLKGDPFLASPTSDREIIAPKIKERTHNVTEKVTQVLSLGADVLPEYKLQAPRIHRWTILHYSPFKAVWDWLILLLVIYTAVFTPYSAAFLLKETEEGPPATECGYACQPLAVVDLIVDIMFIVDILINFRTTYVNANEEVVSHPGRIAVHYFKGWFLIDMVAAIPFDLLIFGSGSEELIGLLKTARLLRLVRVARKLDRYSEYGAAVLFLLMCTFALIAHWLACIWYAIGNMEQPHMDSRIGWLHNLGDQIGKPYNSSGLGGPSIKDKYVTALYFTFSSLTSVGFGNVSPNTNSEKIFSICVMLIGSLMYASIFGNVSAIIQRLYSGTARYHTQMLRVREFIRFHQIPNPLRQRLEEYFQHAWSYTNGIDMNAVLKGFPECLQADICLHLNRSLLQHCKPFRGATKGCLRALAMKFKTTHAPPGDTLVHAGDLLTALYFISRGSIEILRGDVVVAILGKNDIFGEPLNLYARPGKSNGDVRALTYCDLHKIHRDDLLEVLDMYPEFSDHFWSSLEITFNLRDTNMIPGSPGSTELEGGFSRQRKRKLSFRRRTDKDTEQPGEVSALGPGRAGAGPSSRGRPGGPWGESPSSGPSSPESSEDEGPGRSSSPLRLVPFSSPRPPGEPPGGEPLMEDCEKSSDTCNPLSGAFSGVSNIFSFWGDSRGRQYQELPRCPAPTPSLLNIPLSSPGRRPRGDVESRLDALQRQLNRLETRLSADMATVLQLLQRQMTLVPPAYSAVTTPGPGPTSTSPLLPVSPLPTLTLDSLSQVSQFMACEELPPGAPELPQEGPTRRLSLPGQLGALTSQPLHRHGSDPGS
Chain of CYP2C9 (P11712 whole entry): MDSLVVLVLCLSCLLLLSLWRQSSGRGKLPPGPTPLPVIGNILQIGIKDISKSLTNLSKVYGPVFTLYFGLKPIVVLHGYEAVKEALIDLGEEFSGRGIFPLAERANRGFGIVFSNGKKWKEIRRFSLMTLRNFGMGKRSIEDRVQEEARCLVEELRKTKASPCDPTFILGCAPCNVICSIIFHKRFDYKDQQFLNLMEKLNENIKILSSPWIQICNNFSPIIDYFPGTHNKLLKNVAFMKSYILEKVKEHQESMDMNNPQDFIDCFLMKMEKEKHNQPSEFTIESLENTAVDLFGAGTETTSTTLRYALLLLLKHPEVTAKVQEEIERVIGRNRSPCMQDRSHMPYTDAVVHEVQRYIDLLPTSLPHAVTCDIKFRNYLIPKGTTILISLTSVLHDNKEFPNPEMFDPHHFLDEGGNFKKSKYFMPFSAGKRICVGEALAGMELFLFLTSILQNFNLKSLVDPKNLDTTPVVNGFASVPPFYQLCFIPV
Chain of CYP3A4 (P08684 whole entry): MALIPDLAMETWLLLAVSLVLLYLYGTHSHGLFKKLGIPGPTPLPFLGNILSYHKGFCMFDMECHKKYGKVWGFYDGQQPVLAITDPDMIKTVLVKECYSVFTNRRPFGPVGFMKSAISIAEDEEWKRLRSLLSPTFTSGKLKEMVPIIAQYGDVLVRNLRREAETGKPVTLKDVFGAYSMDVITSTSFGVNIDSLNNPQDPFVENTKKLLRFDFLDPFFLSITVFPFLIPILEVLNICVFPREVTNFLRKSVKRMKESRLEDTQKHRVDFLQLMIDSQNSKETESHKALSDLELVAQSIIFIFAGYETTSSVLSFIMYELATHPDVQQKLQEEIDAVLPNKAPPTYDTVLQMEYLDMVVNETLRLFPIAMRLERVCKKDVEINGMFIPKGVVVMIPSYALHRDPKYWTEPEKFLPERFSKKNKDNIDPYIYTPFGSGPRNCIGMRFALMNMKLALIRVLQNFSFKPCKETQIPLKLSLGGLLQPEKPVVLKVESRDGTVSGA
Chain of 5-hydroxytryptamine receptor 2A (P28223 whole entry): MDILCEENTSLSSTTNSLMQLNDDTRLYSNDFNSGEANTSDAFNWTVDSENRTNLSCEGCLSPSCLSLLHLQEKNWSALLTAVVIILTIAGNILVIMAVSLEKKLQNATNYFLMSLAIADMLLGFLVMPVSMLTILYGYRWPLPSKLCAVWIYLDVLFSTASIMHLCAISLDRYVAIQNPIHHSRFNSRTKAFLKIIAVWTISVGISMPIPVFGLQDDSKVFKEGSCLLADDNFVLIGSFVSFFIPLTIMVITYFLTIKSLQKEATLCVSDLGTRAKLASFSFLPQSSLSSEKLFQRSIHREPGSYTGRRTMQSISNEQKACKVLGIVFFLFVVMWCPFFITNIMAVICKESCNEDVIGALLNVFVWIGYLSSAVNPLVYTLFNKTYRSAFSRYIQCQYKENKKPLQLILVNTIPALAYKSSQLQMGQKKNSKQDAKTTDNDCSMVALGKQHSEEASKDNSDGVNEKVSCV
Chain of 5-hydroxytryptamine receptor 5A (Homo sapiens) (P47898 whole entry): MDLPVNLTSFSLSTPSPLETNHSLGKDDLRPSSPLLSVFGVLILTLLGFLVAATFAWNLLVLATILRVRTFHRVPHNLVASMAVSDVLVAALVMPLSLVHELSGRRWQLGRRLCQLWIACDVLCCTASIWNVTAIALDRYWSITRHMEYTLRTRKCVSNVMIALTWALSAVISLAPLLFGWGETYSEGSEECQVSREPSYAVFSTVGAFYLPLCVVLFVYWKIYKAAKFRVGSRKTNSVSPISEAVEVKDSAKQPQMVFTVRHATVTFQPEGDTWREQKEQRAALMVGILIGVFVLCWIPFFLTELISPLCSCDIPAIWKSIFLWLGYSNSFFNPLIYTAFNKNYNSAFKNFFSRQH
Chain of CYP2C19 (P33261 whole entry): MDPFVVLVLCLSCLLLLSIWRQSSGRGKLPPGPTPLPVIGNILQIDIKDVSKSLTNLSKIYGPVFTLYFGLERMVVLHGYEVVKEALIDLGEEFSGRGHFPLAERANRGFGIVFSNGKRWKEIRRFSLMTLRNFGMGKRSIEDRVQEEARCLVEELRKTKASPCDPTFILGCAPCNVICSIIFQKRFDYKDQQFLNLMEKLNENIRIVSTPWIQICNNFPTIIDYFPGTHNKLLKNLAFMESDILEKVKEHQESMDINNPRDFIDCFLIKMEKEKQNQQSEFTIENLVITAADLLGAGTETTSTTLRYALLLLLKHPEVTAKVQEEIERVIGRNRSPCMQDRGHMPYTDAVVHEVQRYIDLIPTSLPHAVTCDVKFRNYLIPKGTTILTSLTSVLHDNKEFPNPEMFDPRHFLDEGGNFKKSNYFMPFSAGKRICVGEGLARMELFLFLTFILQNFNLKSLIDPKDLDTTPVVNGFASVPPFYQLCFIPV
Chain of CYP2D6 (P10635 whole entry): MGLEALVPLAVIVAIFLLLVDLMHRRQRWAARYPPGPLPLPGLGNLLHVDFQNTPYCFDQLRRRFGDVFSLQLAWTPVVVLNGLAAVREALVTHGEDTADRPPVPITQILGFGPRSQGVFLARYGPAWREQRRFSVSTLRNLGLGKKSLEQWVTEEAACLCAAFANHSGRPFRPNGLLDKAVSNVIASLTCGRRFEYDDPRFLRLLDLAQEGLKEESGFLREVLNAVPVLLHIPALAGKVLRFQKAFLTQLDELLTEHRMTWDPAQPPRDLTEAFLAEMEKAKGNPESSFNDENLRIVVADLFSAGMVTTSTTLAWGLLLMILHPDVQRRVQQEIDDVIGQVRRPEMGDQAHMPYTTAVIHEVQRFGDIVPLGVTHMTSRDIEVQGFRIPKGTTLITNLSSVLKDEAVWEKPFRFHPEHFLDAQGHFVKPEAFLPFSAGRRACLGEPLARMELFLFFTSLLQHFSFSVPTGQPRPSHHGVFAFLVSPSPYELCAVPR

## Cl.Cl.O=C(NCc1ccc(OCC(O)CN2CCN(c3noc4cc(F)ccc34)CC2)cc1)N(Cc1ccc(F)cc1)C1CCNCC1 (stereo unspecified)
[1]
  IC50: 0.0428 µM
hERG (KCNH2)
  inhibition at 10 µM: 52%
[2]
  concentration at 1 h: 0.463 µg/mL
[3]
  concentration at 3 h: 0.271 µg/mL
CYP2C9
  inhibition at 10 µM: 5%
CYP2C19
  inhibition at 10 µM: 21%
CYP2D6
  inhibition at 10 µM: 55.1%
CYP3A4
  inhibition at 10 µM: 9.6%
[4]
  inhibition: 44%
[5]
  inhibition: 10%
[6]
  half-life: 13.9 h
[7]
  AUC(0-t): 0.3 µg·h/mL
HCT-116 [8]
  Activity: Dose-dependent-effect
HCT-116 [9]
  Activity: Time-dependent-effect
RKO [10]
  Activity: Dose-dependent-effect
RKO [11]
  Activity: Time-dependent-effect
SW480
  Activity: Time-dependent-effect
CCD-18Co [12]
  Activity: Dose-dependent-effect
CCD-18Co [13]
  Activity: Time-dependent-effect
SW-620 [14]
  Activity: Dose-dependent-effect
SW-620 [15]
  Activity: Active
HCT-116 [16]
  Activity: Active
SW-620 [17]
  Activity: Active
HCT-116 [18]
  Activity: Active
SW-620 [19]
  Activity: Active
SW-620 [20]
  Activity: Dose-dependent-effect
HCT-116 [21]
  Activity: Dose-dependent-effect
SW-620 [22]
  Activity: Dose-dependent-effect
SW-620 [23]
  inhibition in vivo at 50 mg/kg: 46.9%
HCT-116 [24]
  Activity: Active
HCT-116 [25]
  inhibition in vivo at 10 mg/kg: 53.3%
